The values that follow come from patent US20120252721A1 (priority 2011, published 2012).

Like-named read-outs stand apart in the source and are kept apart here.

Assay [1] relates to HCV genotype 1a H77 strain subgenomic luciferase replicon (H1a-luc). In words: Luciferase replicon assay, genotype 1a. Conditions: Hepatitis C virus, read-out: EC50 1a. The assay is classed as cell-based. In short, it runs like this:
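Huh-7 cells carrying H1a-luc subgenomic replicon (luciferase-neomycin phosphotransferase fusion), seeded at 1×10^4 cells/well, dosed 3 h later with ten 5-fold compound dilutions for 72 h at 37 °C. Replication read as luciferase luminescence; replicon-free Huh-7 cells as negative control. EC50 from dose-response curve fits.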

The subject of assay [2] is ZS11-luc L31V (HCV genotype 1b replicon). In words: Luciferase replicon transient transfection assay, ZS11-luc L31V. In kind it is cell-based, hepatitis C virus. Conditions: for EC50: Hepatitis C virus, 96 h, Huh7.5 cells, 4 days. The procedure:
(§1) The luciferase replicon transient transfection assay measures the ability of a test compound to inhibit the replication of a transiently-transfected HCV luciferase-bearing wild-type or mutant replicon in cured human hepatoma cells (Huh7.5). The inhibition of HCV replication was measured by quantification of luciferase protein expression. This assay has been validated using a panel of genotype 1a and 1b replicons bearing mutations known to be associated with resistance to BMS-790052. Briefly, subconfluent Huh7.5 cells were electroporated with 10 μg of wild-type or mutant luciferase-bearing HCV replicon RNA. The cells were then seeded in 96-well opaque white plates at 3×10^4 cells/well in 150 μL/well and incubated for 4 hrs at 37° C./5% CO2. Ten 1:5 serial dilutions of each test compound were made in media (DMEM containing glucose, L-glutamine and sodium pyruvate, 10% fetal bovine serum, 100 IU/mL penicillin, 100 μg/mL streptomycin, 2 mM GlutaMAX, and 1×MEM non-essential amino acids (Mediatech, Inc. and Invitrogen Corp.)) at concentrations that were 4× higher than the final concentrations to be tested and 50 μL/well was added to the transfected cells. Untreated, mock-transfected cells served as a negative control of luciferase expression. The plates were incubated at 37° C./5% CO2 for 4 days whereupon the media was removed and 50 μL of ONE-glo luciferase substrate (Promega) was added to each well. The plates were agitated on a rotating platform at room temperature for 3 min and read in a Victor^3V microplate reader (Perkin-Elmer) using a 700 nm cut-off filter with a 1 sec read time. EC50 values were calculated from dose response curves from the resulting best-fit equations determined by Microsoft Excel and XLfit 4.1 software.

The subject of assay [3] is HCV genotype 1a replicon, NS5A K24E. In words: Luciferase replicon transient transfection assay, genotype 1a NS5A K24E. In kind it is cell-based, hepatitis C virus. The following applies: for EC50: Hepatitis C virus, genotype 1a, HCV region NS5A, mutation K24E. On the procedure: as §1
In assay [4] the test system is ZS11-luc replicon, NS3-A156T. In words: Luciferase replicon transient transfection assay, NS3-A156T. Conditions: for EC50: Hepatitis C virus. In kind it is cell-based, hepatitis C virus. On the procedure: as §1
(§2) To determine the replication capacity of each mutant relative to the wild-type parental replicon, transfected cells were plated on two plates and were not treated with compound. Luciferase activity was measured at time points of 4 hrs and 4 days after plating for each replicon. Replication capacity was calculated by dividing the day 4 CPS by the 4 hour CPS for each replicon and determining the percentage present for each mutant replicon relative to wild-type replicon values. The NS3, NS4B, and NS5B mutants were prepared and tested according to the methods described herein.
Background: A replicon is a self-replicating genome or part of one, used to study replication in cells.

Assay [5] relates to ZS11-luc replicon, NS3-D168V. The experiment in a line: Luciferase replicon transient transfection assay, NS3-D168V. The following applies: for EC50: Hepatitis C virus. The assay is classed as cell-based, hepatitis C virus. The procedure: as §1, §2
Assay [6] deals with 1a-luc Q30R (HCV genotype 1a replicon). In words: Luciferase replicon transient transfection assay, 1a-luc Q30R. In kind it is cell-based, hepatitis C virus. The following applies: for EC50: Hepatitis C virus, 96 h, Huh7.5 cells, 4 days. The procedure:
as §1

The subject of assay [7] is ZS11-luc P32L (HCV genotype 1b replicon). The experiment in a line: Luciferase replicon transient transfection assay, ZS11-luc P32L. In kind it is cell-based, hepatitis C virus. The following applies: for EC50: Hepatitis C virus, 96 h, Huh7.5 cells, 4 days. On the procedure:
as §1

Turning to `COC(=O)N[C@H](C(=O)N1CCC[C@H]1c1ncc(-c2ccc(-c3csc4c(-c5cnc([C@@H]6CCCN6C(=O)[C@@H](NC(=O)OC)C(C)C)[nH]5)csc34)cc2)[nH]1)C(C)C` [Compound A15, [(S)-1-((S)-2-{4-[4-(6-{2-[(S)-1-((S)-2-methoxycarbonylamino-3-methyl-butyryl)-pyrrolidin-2-yl]-3H-imidazol-4-yl}-thieno[3,2-b]thiophen-3-yl)-phenyl]-1H-imidazol-2-yl}-pyrrolidine-1-carbonyl)-2-methyl-propyl]-carbamic acid methyl ester], in assay [1] (genotype 1a), the concentration giving a half-maximal response (EC50) (in general, the midpoint of the concentration-response curve) was under 0.1 nM.
With `COC(=O)N[C@H](C(=O)N1CCC[C@H]1c1ncc(-c2ccc(-c3csc4c(-c5cnc([C@@H]6CCCN6C(=O)[C@H](NC(=O)OC(C)(C)C)c6ccccc6)[nH]5)csc34)cc2)[nH]1)C(C)C` [Compound A111, [(S)-1-((S)-2-{4-[4-(6-{(S)-2-[1-((R)-2-tert-butoxycarbonylamino-2-phenyl-acetyl)-pyrrolidin-2-yl]-3H-imidazol-4-yl}-thieno[3,2-b]thiophen-3-yl)-phenyl]-1H-imidazol-2-yl}-pyrrolidine-1-carbonyl)-2-methyl-propyl]-carbamic acid methyl ester], in assay [2], the Ratio was determined as 51 and the response was half-maximal at 0.09 nM (EC50). Further, in assay [1], the EC50 was in the range of 0.1 to 1 nM.
For the compound `COC(=O)N[C@H](C(=O)N1CCC[C@H]1c1nc2cc(-c3csc4c(-c5ccc(-c6cnc([C@@H]7CCCN7C(=O)[C@H](NC(=O)OC)c7ccccc7)[nH]6)cc5)csc34)ccc2[nH]1)C(C)C` [Compound A169, [(S)-1-((S)-2-{6-[6-(4-{(S)-2-[1-((R)-2-methoxycarbonylamino-2-phenyl-acetyl)-pyrrolidin-2-yl]-3H-imidazol-4-yl}-phenyl)-thieno[3,2-b]thiophen-3-yl]-1H-benzoimidazol-2-yl}-pyrrolidine-1-carbonyl)-2-methyl-propyl]-carbamic acid methyl ester], the EC50 in assay [3] worked out at 0.004 nM; in assay [2], 0.03 nM; in assay [4], 0.0018 nM; in assay [5], 0.0018 nM; in assay [6] it was 0.02 nM; in assay [7], 0.02 nM. Further, the EC50 in assay [1] was under 0.1 nM. The Ratio came out at 1.83 in assay [3]; 14 in assay [2]; 1.09 in assay [4]; 1.04 in assay [5]; 10 in assay [6]; 8 in assay [7].
For the compound `COC(=O)N[C@H](C(=O)N1CCC[C@H]1c1ncc(-c2ccc(-c3csc4c(-c5ccc6[nH]c([C@@H]7CCCN7C(=O)[C@H](NC(=O)OC)c7ccccc7)nc6c5)csc34)cc2)[nH]1)C(C)C` [Compound A172, [(S)-1-((S)-2-{5-[4-(6-{(S)-2-[1-((R)-2-Methoxycarbonylamino-2-phenyl-acetyl)-pyrrolidin-2-yl]-3H-benzoimidazol-5-yl}-thieno[3,2-b]thiophen-3-yl)-phenyl]-1H-imidazol-2-yl}-pyrrolidine-1-carbonyl)-2-methyl-propyl]-carbamic acid methyl ester], the EC50 amounted to 0.006 nM in assay [3]; 0.04 nM in assay [2]; 0.0026 nM in assay [4]; 0.0024 nM in assay [5]; 0.04 nM in assay [6]; 0.03 nM in assay [7]. The EC50 in assay [1] is under 0.1 nM. In addition, the Ratio in assay [3] worked out at 1.64; in assay [2] it was 9; in assay [4], 1.14; in assay [5], 1.04; in assay [6] it was 10; in assay [7], 6.
